What was measured:
[1] = plasma concentrations of atomoxetine in the OSA pig model; type: in vivo, pigs; settings: atomoxetine dose used in the combination (i.v. bolus 20 μg/kg + infusion 12.5 μg/kg/h), FIG. 3
[2] = tested on: upper airway collapsibility; experiment: pig model of obstructive sleep apnea (OSA): collapse of the upper respiratory tract under negative pressure; type: in vivo, German Landrace pigs; parameters: efficacy of the dose on upper airway collapsibility: dose or concentration left out as unconfirmed
Text: The therapeutic potential of the combination of a TASK1/3 channel blocker with a norepinephrine reuptake inhibitor according to the present invention in sleep apnea can be assessed preclinically in a pig model of obstructive sleep apnea (OSA).
German Landrace pigs are used for the model. The pigs are anaesthetized and tracheotomized. Two tracheal cannulas are inserted into the trachea, one into the rostral part and the other into the caudal part of the trachea. Using a connection piece, the rostral cannula is connected to a tube to the negative pressure device and to the distal tracheal cannula. The distal tracheal cannula is additionally connected to a tube with an open end to atmosphere via a connection piece that served for free tracheal breathing, circumventing the upper airway. By appropriate opening and clamping of those tubes breathing can be switched from nasal breathing to breathing through the caudal tracheal cannula, circumventing the upper airway, and the (isolated) upper airway can be connected to the negative pressure device, causing airflow in the inspiratory direction.
At certain points in time, the collapsibility of the upper respiratory tract is tested by having the pig breathe via the caudal cannula and applying negative pressures of −50, −100 and −150 cm water head (cm H2O) to the upper respiratory tract. This causes the upper respiratory tract to collapse, which manifests itself in an interruption of the airflow and a pressure drop in the tube system. This test is conducted prior to the administration of the test substance and at certain intervals after the administration of the test substance. An appropriately effective test substance can prevent this collapse of the respiratory tract in the inspiratory phase.

[3] = atomoxetine i.v. bolus 20 μg/kg + infusion 12.5 μg/kg/h for four hours from 0 min, time 0 min (time of administration)
[4] = atomoxetine i.v. bolus 20 μg/kg + infusion 12.5 μg/kg/h for four hours from 0 min, time 10 min
[5] = atomoxetine i.v. bolus 20 μg/kg + infusion 12.5 μg/kg/h for four hours from 0 min, time 30 min
[6] = atomoxetine i.v. bolus 20 μg/kg + infusion 12.5 μg/kg/h for four hours from 0 min, time 60 min
[7] = atomoxetine i.v. bolus 20 μg/kg + infusion 12.5 μg/kg/h for four hours from 0 min, time 90 min (time of nasal application of TASK1/3 channel blocker)
[8] = intranasal 0.3 μg at 0 min, alone, time 0 min (time of administration)
[9] = intranasal 0.3 μg at 0 min, alone, time 10 min
[10] = intranasal 0.3 μg at 0 min, alone, time 30 min
[11] = intranasal 0.3 μg at 0 min, alone, time 60 min
[12] = intranasal 0.3 μg at 0 min, alone, time 90 min

Q: What does the source list for `CNCC[C@@H](Oc1ccccc1C)c1ccccc1` [atomoxetine, Atomoxetine]?
A: plasma concentrations [1]: about 100 nM; inhibition of upper airway collapsibility ([2]; atomoxetine alone, i.v. bolus 20 μg/kg + infusion 12.5 μg/kg/h, 30 min after bolus injection and start of infusion): inhibited only at a negative pressure of −50 and −100 cm head; inhibition of upper airway collapsibility ([2]; atomoxetine alone, i.v. bolus 20 μg/kg + infusion 12.5 μg/kg/h, 60 min after administration): inhibited only at a negative pressure of −50 cm head; upper airway collapsibility ([2]; atomoxetine alone, i.v. bolus 20 μg/kg + infusion 12.5 μg/kg/h, 90 min after bolus injection and start of infusion): induced at all negative pressures; time points at which upper airway collapsibility was inhibited at all three negative pressures of −50, −100 and −150 cm head (cm H2O) in all pigs ([2]; atomoxetine alone, i.v. bolus 20 μg/kg followed by infusion 12.5 μg/kg/h for four hours): at no time point; Percent pigs without collaps −50 cm H2O, % [2, 3]: 0%; Percent pigs without collaps −50 cm H2O, % [2, 4]: 67%; Percent pigs without collaps −50 cm H2O, % [2, 5]: 100%; Percent pigs without collaps −50 cm H2O, % [2, 6]: 100%; Percent pigs without collaps −50 cm H2O, % [2, 7]: 0%; Percent pigs without collaps −100 cm H2O, % [2, 3]: 0%; Percent pigs without collaps −100 cm H2O, % [2, 4]: 0%; Percent pigs without collaps −100 cm H2O, % [2, 5]: 100%; Percent pigs without collaps −100 cm H2O, % [2, 6]: 0%; Percent pigs without collaps −100 cm H2O, % [2, 7]: 0%; Percent pigs without collaps −150 cm H2O, % [2, 3]: 0%; Percent pigs without collaps −150 cm H2O, % [2, 4]: 0%; Percent pigs without collaps −150 cm H2O, % [2, 5]: 0%; Percent pigs without collaps −150 cm H2O, % [2, 6]: 0%; Percent pigs without collaps −150 cm H2O, % [2, 7]: 0%

Q: For `COc1ccc(Cl)c(C(=O)N2C3CCC2CN(Cc2c(-c4ccc(C(C)C)cc4)nc4ncccn24)C3)n1` [(3-Chloro-6-methoxypyridin-2-yl)(3-{[2-(4-isopropylphenyl)imidazo[1,2-a]pyrimidin-3-yl]methyl}-3,8-diazabicyclo[3.2.1]oct-8-yl)methanone], which “efficacy of the dose on upper airway collapsibility” value ([2]; TASK1/TASK3 channel blocker alone) is on record?
A: non effective dose

Q: And the “Percent pigs without collaps −50 cm H2O, %” value [2, 8]?
A: 0%

Q: What about the “Percent pigs without collaps −50 cm H2O, %” value [2, 9] of the same molecule?
A: 33%

Q: What about the “Percent pigs without collaps −50 cm H2O, %” value [2, 10] of the same molecule?
A: 0%

Q: And the “Percent pigs without collaps −50 cm H2O, %” value [2, 11]?
A: 0%

Q: And the “Percent pigs without collaps −50 cm H2O, %” value [2, 12]?
A: 0%

Q: What about the “Percent pigs without collaps −100 cm H2O, %” value [2, 8] of the same molecule?
A: 0%

Q: What about the “Percent pigs without collaps −100 cm H2O, %” value [2, 9] of the same molecule?
A: 33%

Q: What about the “Percent pigs without collaps −100 cm H2O, %” value [2, 10] of the same molecule?
A: 0%

Q: What about the “Percent pigs without collaps −100 cm H2O, %” value [2, 11] of the same molecule?
A: 0%

Q: What about the “Percent pigs without collaps −100 cm H2O, %” value [2, 12] of the same molecule?
A: 0%

Q: And the “Percent pigs without collaps −150 cm H2O, %” value [2, 8]?
A: 0%

Q: And the “Percent pigs without collaps −150 cm H2O, %” value [2, 9]?
A: 0%

Q: What about the “Percent pigs without collaps −150 cm H2O, %” value [2, 10] of the same molecule?
A: 0%

Q: And the “Percent pigs without collaps −150 cm H2O, %” value [2, 11]?
A: 0%

Q: What about the “Percent pigs without collaps −150 cm H2O, %” value [2, 12] of the same molecule?
A: 0%

Reference: US20250049803A1, “COMBINATION OF A TASK1/3 CHANNEL BLOCKER WITH A NOREPINEPHRINE REUPTAKE INHIBITOR FOR THE TREATMENT OF SLEEP APNEA” (priority 2021, published 2025)
